{"source": "patent US11578083B2", "about": "“Pyrimidinium compounds and their mixtures for combating animal pests” (BASF SE, priority 2017, dated 2023)", "type_in_all_cases": "in vivo", "key": {"[1]": {"tested_on": "Thrips (Dichromothrips corbetti)", "assay": "B.4 Thrips floral-immersion test", "conditions": "72 h", "method": "B.4 Thrips (Dichromothrips Corbetti):\nDichromothrips corbetti adults used for bioassay are obtained from a colony maintained continuously under laboratory conditions. For testing purposes, the test compound is diluted in a 1:1 mixture of acetone:water (vol:vol), plus 0.01% vol/vol Alkamuls® EL 620 surfactant.\nThrips potency of each compound is evaluated by using a floral-immersion technique. Plastic petri dishes are used as test arenas. All petals of individual, intact orchid flowers are dipped into treatment solution and allowed to dry. Treated flowers are placed into individual petri dishes along with about 20 adult thrips. The petri dishes v then covered with lids. All test arenas are held under continuous light and a temperature of about 28° C. for duration of the assay. After 3 days, the numbers of live thrips are counted on each flower, and along inner walls of each petri dish. The percent mortality is recorded 72 hours after treatment."}, "[2]": {"tested_on": "green peach aphid (Myzus persicae)", "assay": "Test 2 green peach aphid, artificial diet (mixtures)", "source_text": "For evaluating control of green peach aphid (Myzus persicae) through systemic means the test unit consisted of 96-well-microtiter plates containing liquid artificial diet under an artificial membrane.\nThe compounds or mixtures were formulated using a solution containing 75% water and 25% DMSO. Concentrations of formulated compounds or mixtures were pipetted into the aphid diet, using a custom built pipetter, at two replications.\n(§1) For experimental mixtures in these tests identical volumes of both mixing partners at the desired concentrations respectively, were mixed together.\nAfter application, 5-8 adult aphids were placed on the artificial membrane inside the microtiter plate wells. The aphids were then allowed to suck on the treated aphid diet and incubated at 23±1° C., 50±5% RH for 3 days. Aphid mortality and fecundity was then visually assessed."}, "[3]": {"tested_on": "Rice green leafhopper (Nephotettix virescens)", "assay": "B.1 Rice green leafhopper, sprayed rice seedlings", "conditions": "72 h", "method": "B.1 Rice Green Leafhopper (Nephotettix virescens):\n(§2) Rice seedlings are cleaned and washed 24 hours before spraying. The active compounds are formulated in 50:50 acetone:water (vol:vol), and 0.1% vol/vol surfactant (EL 620) is added. Potted rice seedlings are sprayed with 5 ml test solution, air dried, placed in cages and inoculated with 10 adults. Treated rice plants are kept at about 28-29° C. and relative humidity of about 50-60%. Percent mortality is recorded after 72 hours."}, "[4]": {"tested_on": "Greenhouse Whitefly (Trialeurodes vaporariorum)", "assay": "Greenhouse Whitefly, egg plant leaf disk (table 5, mixtures)", "conditions": "solo application I-R-1, use rate 2 ppm", "method": "For evaluating control of Greenhouse Whitefly (Trialeurodes vaporariorum) the test unit consisted of 96-well-microtiter plates containing a leaf disk of egg plant leaf disk with white fly eggs. The compounds or mixtures were formulated using a solution containing 75% water and 25% DMSO. Concentrations of formulated compounds or mixtures were sprayed onto the […] at 2.5 μl, using a custom built micro atomizer, at two replications.\nas §1\nAfter application, microtiter plates were incubated at 23±1° C., 65±5% RH for 6 days. Mortality of hatched crawlers was then visually assessed."}, "Chilo suppressalis": {"tested_on": "Chilo suppressalis", "assay": "B.3a Rice stem borer vial bioassay", "conditions": "72 h", "method": "Field-collected rice straws were washed with tap water and cut for a certain of length. Straws were air dried before placing individually in vials (=replicate, 3×). About 125 μl test solution was sprayed per vial. Treated rice straws in vials were air dried under the laboratory hood. After air-drying, each straw was inoculated with 10 newly-emerged (0-day old) stem borer larvae. Vials were then covered. Set-up was kept in a holding room maintained at 27° C. and 65% RH for three days. At 3 days after inoculation, rice straws were manually dissected for larval mortality assessment. The data (Table C) show activity against two species of rice stem borers."}, "[5]": {"tested_on": "brown planthopper (Nilaparvata lugens)", "assay": "Test 6 brown planthopper, foliar spray (mixtures)", "conditions": "solo application I-R-1, use rate 5 ppm", "method": "For evaluating control of brown planthopper (Nilaparvata lugens) by foliar spray method. Clean potted rice seedlings with upper leaf portion cut are properly labeled. Placed three potted rice plants per treatment concentration/combination on top of the rotating disc (270 mm) and sprayed with the 12 mL spray solution. Treated plants are allowed to air-dry in the laboratory for about an hour. After air-drying, covered each treated rice plant. Each treated plant was infested with brown planthoppers using a suction vacuum. Plants are maintained at 27° C.±1° C., 50±5% RH and 24 hours light conditions in a holding room. Percent mortality is recorded 7 days after infestation by counting both the dead and alive brown planthoppers on the plants and on the water."}, "[6]": {"tested_on": "Rice brown plant hopper (Nilaparvata lugens)", "assay": "B.2 Rice brown plant hopper, sprayed rice seedlings", "conditions": "72 h", "method": "B.2 Rice Brown Plant Hopper (Nilaparvata lugens):\nas §2, with “(vol:vol)” for “(vol:vol),”"}, "[7]": {"tested_on": "tobacco budworm (Heliothis virescens)", "assay": "Test 10 tobacco budworm, insect diet with eggs (mixtures)", "method": "(§3) For evaluating control of tobacco budworm (Heliothis virescens) the test unit consisted of 96-well-microtiter plates containing an insect diet and 15-25 H. virescens eggs.\nThe compounds or mixtures were formulated using a solution containing 75% water and 25% DMSO. Different concentrations of formulated compounds or mixtures were sprayed onto the insect diet at 10 μl, using a custom built micro atomizer, at two replications.\nas §1\n(§4) After application, microtiter plates were incubated at 28±1° C., 80±5% RH for 5 days. Egg and larval mortality was then visually assessed."}, "[8]": {"tested_on": "tobacco budworm (Heliothis virescens)", "assay": "Test 4 tobacco budworm, insect diet with eggs (mixtures)", "method": "as §3\nThe compounds or mixtures were formulated using a solution containing 75% water and 25% DMSO. Concentrations of formulated compounds or mixtures were sprayed onto the insect diet at 10 μl, using a custom built micro atomizer, at two replications.\nas §1, §4"}, "[9]": {"tested_on": "boll weevil (Anthonomus grandis)", "assay": "Test 3 boll weevil, insect diet with eggs (mixtures)", "method": "For evaluating control of boll weevil (Anthonomus grandis) the test unit consisted of 24-well-microtiter plates containing an insect diet and 20-30 A. grandis eggs.\nThe compounds or mixtures were formulated using a solution containing 75% water and 25% DMSO. Concentrations of formulated compounds or mixtures were sprayed onto the insect diet at 20 μl, using a custom built micro atomizer, at two replications.\nas §1\nAfter application, microtiter plates were incubated at 23±1° C., 50±5% RH for 5 days. Egg and larval mortality was then visually assessed."}}}
{"compound": "C[n+]1c([O-])c(-c2ccccc2)c(=O)n2c1SC[C@@H]2c1cnc(Cl)s1", "note": "[I-R-1, (3R)-3-(2-chlorothiazol-5-yl)-8-methyl-7-oxo-6-phenyl-2,3-dihydrothiazolo[3,2-a]pyrimidin-4-ium-5-olate]", "values": [{"measurement": "mortality at 10 ppm", "setting": "[1]", "result": 100, "unit": "%"}, {"measurement": "Average control %", "setting": "[2]; Table 2.1, solo application I-R-1, use rate 2 ppm", "result": 25, "unit": "%"}, {"measurement": "Average control %", "setting": "[2]; Table 2.2, solo application I-R-1, use rate 2 ppm", "result": 0, "unit": "%"}, {"measurement": "Average control %", "setting": "[2]; Table 2.3, solo application I-R-1, use rate 0.4 ppm", "result": 50, "unit": "%"}, {"measurement": "Average control %", "setting": "[2]; Table 2.4, solo application I-R-1, use rate 50 ppm", "result": 0, "unit": "%"}, {"measurement": "Average control %", "setting": "[2]; Table 2.5, solo application I-R-1, use rate 2 ppm", "result": 50, "unit": "%"}, {"measurement": "Average control %", "setting": "[2]; Table 2.6, solo application I-R-1, use rate 2 ppm", "result": 25, "unit": "%"}, {"measurement": "mortality at 1 ppm", "setting": "[3]", "result": 100, "unit": "%"}, {"measurement": "Average control %", "setting": "[4]", "result": 0, "unit": "%"}, {"measurement": "mortality at 300 ppm", "setting": "Chilo suppressalis", "result": 83, "unit": "%"}, {"measurement": "Average control %", "setting": "[5]; Table 6.1, after 7 days", "result": 62, "unit": "%"}, {"measurement": "Average control %", "setting": "[5]; Table 6.2, after 7 days", "result": 62, "unit": "%"}, {"measurement": "mortality at 1 ppm", "setting": "[6]", "result": 90, "unit": "%"}, {"measurement": "Average control %", "setting": "[7]; Table 10.1, solo application I-R-1, use rate 10 ppm", "result": 0, "unit": "%"}, {"measurement": "Average control %", "setting": "[7]; Table 10.2, solo application I-R-1, use rate 10 ppm", "result": 25, "unit": "%"}, {"measurement": "Average control %", "setting": "[8]; Table 4.1, solo application I-R-1, use rate 10 ppm", "result": 0, "unit": "%"}, {"measurement": "Average control %", "setting": "[8]; Table 4.2, solo application I-R-1, use rate 0.4 ppm", "result": 0, "unit": "%"}, {"measurement": "Average control %", "setting": "[9]; Table 3.1, solo application I-R-1, use rate 50 ppm", "result": 0, "unit": "%"}, {"measurement": "Average control %", "setting": "[9]; Table 3.2, solo application I-R-1, use rate 2 ppm", "result": 0, "unit": "%"}, {"measurement": "Average control %", "setting": "[9]; Table 3.3, solo application I-R-1, use rate 2 ppm", "result": 0, "unit": "%"}]}
